The results in this text go back to patent US11261186B2, “Biaryl derivative as GPR120 agonist” (LG CHEM, LTD., priority 2014, dated 2022).

In the assay the target is T1, hGPR120 (Homo sapiens, UniProt Q5NUL3).
T1 construct: expressed in transfected cells; host or cells: CHO-K1
T1 sequence (Q5NUL3 1-361): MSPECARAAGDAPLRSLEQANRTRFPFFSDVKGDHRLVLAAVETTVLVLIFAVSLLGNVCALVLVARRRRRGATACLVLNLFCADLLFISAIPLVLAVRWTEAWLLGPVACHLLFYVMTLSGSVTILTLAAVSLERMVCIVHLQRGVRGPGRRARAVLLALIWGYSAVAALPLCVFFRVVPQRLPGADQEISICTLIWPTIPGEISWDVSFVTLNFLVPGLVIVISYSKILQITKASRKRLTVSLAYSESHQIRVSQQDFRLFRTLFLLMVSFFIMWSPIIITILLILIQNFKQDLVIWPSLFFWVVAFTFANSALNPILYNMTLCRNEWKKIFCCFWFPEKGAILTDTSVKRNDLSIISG
The assay can be described thus: Measurement of Activity of GPR120 Agonist (Cell-Based Assay), Calcium 5 dye fluorescence. The settings on record: CHO-K1 cells expressing Ga16 and hGPR120. How it is done:
CHO-K1 cells expressing Ga16 and hGPR120 were dispensed into each well of a 96-well plate (3×10^4 cells/100 μl/well) and then incubated in 5% CO2, 37° C. incubator for 18 hours. Each well was treated with 100 μl of Calcium 5 dye (Molecular Devices) solution including 2% DMSO and then incubated in 5% CO2, 37° C. incubator for 1 hour. Serially diluted GPR120 agonists were prepared to a final concentration of 0.5% DMSO in a 96-well plate. Each well was treated with 50 μl of the agonist compounds using Plexstation II, and then fluorescence was measured at Ex 485 nm and Em 525 nm.
Fluorescence increased by the serially diluted GPR120 agonists is calculated as a relative percent (%) value based on the fluorescence represented by the treatment of 1% DMSO only. […] The calculation of measurement was carried out by using statistical software (Prizm).
Activity is denoted based on the following criteria: […]

The term EC50 denotes the concentration that produces a half-maximal response. For `CC(CCCC(=O)O)c1ccc(-c2cccnc2SC2CCC2)cc1` (centres unmarked) [Example 39, 5-[4-(2-cyclobutylsulfanyl-3-pyridyl)phenyl]hexanoic acid], the EC50 was less than 0.2 µM. To `CC(CCCC(=O)O)c1ccc(-c2cccc(OC3CCC3)n2)cc1` (centres unmarked) [Example 40, 5-[4-(6-cyclobutoxy-2-pyridyl)-phenyl]hexanoic acid] belongs less than 0.2 µM; to `CC(CCCC(=O)O)c1c(F)cc(-c2cccc(OC3CCC3)n2)cc1F` (centres unmarked) [Example 41, 5-[4-(6-cyclobutoxy-2-pyridyl)-2,6-difluoro-phenyl]hexanoic acid], less than 0.2 µM; to `CCSc1ncccc1-c1cc(F)c(C(C)CCCC(=O)O)c(F)c1` (centres unmarked) [Example 42, 5-[4-(2-ethylsulfanyl-3-pyridyl)-2,6-difluoro-phenyl]hexanoic acid], less than 0.2 µM. Next, `CCCSc1ncccc1-c1cc(F)c(C(C)CCCC(=O)O)c(F)c1` (centres unmarked) [Example 43, 5-[2,6-difluoro-4-(2-propylsulfanyl-3-pyridyl)-phenyl]hexanoic acid]: less than 0.2 µM; `CC(C)Oc1ncccc1-c1cc(F)c(C(C)CCCC(=O)O)c(F)c1` (centres unmarked) [Example 46, 5-[2,6-difluoro-4-(2-isopropoxy-3-pyridyl)phenyl]hexanoic acid]: less than 0.2 µM. To `CC(CCCC(=O)O)c1c(F)cc(-c2cccnc2SC2CCC2)cc1F` (centres unmarked) [Example 48, 5-[4-(2-cyclobutylsulfanyl-3-pyridyl)-2,6-difluoro-phenyl]hexanoic acid] belongs less than 0.2 µM; to `CC(CCCC(=O)O)c1c(F)cc(-c2cccnc2SC2CCCC2)cc1F` (centres unmarked) [Example 49, 5-[4-(2-cyclopentylsulfanyl-3-pyridyl)-2,6-difluoro-phenyl]hexanoic acid], less than 0.2 µM. For the compound `CC(C)Sc1ncccc1-c1cc(F)c(C(C)CCCC(=O)O)c(F)c1` (centres unmarked) [Example 50, 5-[2,6-difluoro-4-(2-isopropylsulfanyl-3-pyridyl)-phenyl]hexanoic acid], the EC50 was less than 0.2 µM. Next, `CC(CCCC(=O)O)c1c(F)cc(-c2cccnc2OC2CCCC2)cc1F` (centres unmarked) [Example 51, 5-[4-(2-cyclopentoxy-3-pyridyl)-2,6-difluoro-phenyl]hexanoic acid]: less than 0.2 µM; `CC(CCCC(=O)O)c1c(F)cc(-c2cccc(NC3CCCC3)c2)cc1F` (centres unmarked) [Example 52, 5-(3′-cyclopentylamino-3,5-difluoro-biphenyl-4-yl)-hexanoic acid]: less than 0.2 µM. Next, `CC(C)Sc1cccc(-c2cc(F)c(C(C)CCCC(=O)O)c(F)c2)n1` (centres unmarked) [Example 53, 5-[2,6-difluoro-4-(6-isopropylsulfanyl-2-pyridyl)-phenyl]hexanoic acid]: less than 0.2 µM; `CC(CCCC(=O)O)c1c(F)cc(-c2cccc(SC3CCCC3)n2)cc1F` (centres unmarked) [Example 54, 5-[4-(6-cyclopentylsulfanyl-2-pyridyl)-2,6-difluoro-phenyl]hexanoic acid]: less than 0.2 µM; `CCCSc1cccc(-c2cc(F)c(C(C)CCCC(=O)O)c(F)c2)n1` (centres unmarked) [Example 55, 5-[2,6-difluoro-4-(6-propylsulfanyl-2-pyridyl)phenyl]hexanoic acid]: less than 0.2 µM. As to `CC(CCCC(=O)O)c1c(F)cc(-c2cccc(OC3CCCC3)n2)cc1F` (centres unmarked) [Example 56, 5-[4-(6-cyclopentoxy-2-pyridyl)-2,6-difluoro-phenyl]hexanoic acid], the EC50 is less than 0.2 µM. For the compound `CC(CCCC(=O)O)c1c(F)cc(-c2cccnc2OC2CCC2)cc1F` (centres unmarked) [Example 59, 5-[4-(2-cyclobutoxy-3-pyridyl)-2,6-difluoro-phenyl]hexanoic acid], the EC50 is less than 0.2 µM. Next, `CC(CCCC(=O)O)c1c(F)cc(-c2cccnc2OCC2CC2)cc1F` (centres unmarked) [Example 60, 5-[4-(2-cyclopropylmethoxy-3-pyridyl)-2,6-difluoro-phenyl]hexanoic acid]: less than 0.2 µM; `Oc1cc(COc2c(F)cc(-c3cccnc3SC3CCC3)cc2F)on1` [Example 61, 5-[[4-(2-cyclobutylsulfanyl-3-pyridyl)-2,6-difluoro-phenoxy]methyl]isoxazol-3-ol]: less than 0.2 µM; `CCCSc1ncccc1-c1ccc(CCCc2noc(=O)[nH]2)cc1` [Example 63, 3-[3-[4-(2-propylsulfanyl-3-pyridyl)phenyl]propyl]-4H-1,2,4-oxadiazol-5-one]: 2 to 20 µM.

In the case of `CCCSc1ncccc1-c1ccc(CCCc2noc(=S)[nH]2)cc1` [Example 64, 3-[3-[4-(2-propylsulfanyl-3-pyridyl)phenyl]propyl]-4H-1,2,4-oxadiazol-5-thione], the EC50 was 2 to 20 µM. As to `Oc1cc(COc2c(F)cc(-c3cccnc3SC3CCCC3)cc2F)on1` [Example 65, 5-[[4-(2-cyclopentylsulfanyl-3-pyridyl)-2,6-difluoro-phenoxy]methyl]isoxazol-3-ol], the EC50 was less than 0.2 µM. To `CCCSc1ncccc1-c1cc(F)c(OCc2cc(O)no2)c(F)c1` [Example 66, 5-[[2,6-difluoro-4-(2-propylsulfanyl-3-pyridyl)phenoxy]methyl]isoxazol-3-ol] belongs less than 0.2 µM. With `Oc1cc(COc2c(F)cc(-c3cccnc3OC3CCCC3)cc2F)on1` [Example 67, 5-[[4-[2-(cyclopentoxy)-3-pyridyl]-2,6-difluoro-phenoxy]methyl]isoxazol-3-ol], the concentration giving a half-maximal response (EC50) is less than 0.2 µM. In the case of `CC(C)Sc1ncccc1-c1cc(F)c(OCc2cc(O)no2)c(F)c1` [Example 68, 5-[[2,6-difluoro-4-(2-isopropylsulfanyl-3-pyridyl)phenoxy]methyl]isoxazol-3-ol], the EC50 is less than 0.2 µM. Next, `CC(C)Oc1ncccc1-c1cc(F)c(OCc2cc(O)no2)c(F)c1` [Example 69, 5-[[2,6-difluoro-4-(2-isopropoxy-3-pyridyl)phenoxy]methyl]isoxazol-3-ol]: less than 0.2 µM; `CC(C)Sc1cccc(-c2cc(F)c(OCc3cc(O)no3)c(F)c2)n1` [Example 70, 5-[[2,6-difluoro-4-(6-isopropylsulfanyl-2-pyridyl)phenoxy]methyl]isoxazol-3-ol]: less than 0.2 µM. To `CC(C)Oc1cccc(-c2cc(F)c(OCc3cc(O)no3)c(F)c2)n1` [Example 71, 5-[[2,6-difluoro-4-(6-isopropoxy-2-pyridyl)phenoxy]methyl]isoxazol-3-ol] belongs less than 0.2 µM; to `Oc1cc(COc2c(F)cc(-c3cccc(OCC4CC4)n3)cc2F)on1` [Example 72, 5-[[4-[6-(cyclopropylmethoxy)-2-pyridyl]-2,6-difluoro-phenoxy]methyl]isoxazol-3-ol], less than 0.2 µM. Take `CCCOc1cccc(-c2cc(F)c(OCc3cc(O)no3)c(F)c2)n1` [Example 73, 5-[[2,6-difluoro-4-(6-propoxy-2-pyridyl)phenoxy]methyl]isoxazol-3-ol]: the EC50 is less than 0.2 µM.

As to `CCCOc1ncccc1-c1cc(F)c(OCc2cc(O)no2)c(F)c1` [Example 74, 5-[[2,6-difluoro-4-(2-propoxy-3-pyridyl)phenoxy]methyl]isoxazol-3-ol], the EC50 is less than 0.2 µM. On to `Oc1cc(COc2c(F)cc(-c3cccnc3OC3CCC3)cc2F)on1` [Example 76, 5-[[4-[2-(cyclobutoxy)-3-pyridyl]-2,6-difluoro-phenoxy]methyl]isoxazol-3-ol], for which the EC50 was less than 0.2 µM.

For `Oc1cc(COc2c(F)cc(-c3cccnc3OCC3CCC3)cc2F)on1` [Example 77, 5-[[4-[2-(cyclobutylmethoxy)-3-pyridyl]-2,6-difluoro-phenoxy]methyl]isoxazol-3-ol], the EC50 is less than 0.2 µM.
